For assay [1], the system named is CDK2-cyclin A. To be noted: radiolabelled γ33P-ATP kinase assay; ref Lane et al., 2001; read-out: IC50 Published measurements CDK2A; cited from earlier work.
In the next assay the target is T1, monomeric CDK1 (Homo sapiens, UniProt P06493).
T1 construct: Full-length human CDK1 was expressed in insect cells either untagged (from pVL1393) or as a 3C-protease cleavable GST fusion; GST (N, cleaved yes); made in house; host or cells: insect cells (Sf9 baculovirus)
In words: Differential scanning fluorimetry (DSF), CDK1. In kind it is binding. To be noted: read-out: ΔTm CDK1. As for the experimental part: (§1) The stability of the CDK1 and CDK2 inhibitor complexes were assessed by differential scanning fluorimetry (DSF) using a ViiA7 Real-Time PCR system (Applied Biosystems). Purified CDK1 (4 μM) and CDK2 (6 uM) in their respective gel filtration buffers were assayed in the presence of 10 μM inhibitor in 8% DMSO, in triplicate, in a 384-well plate. […] The resulting data was plotted and the inflection point (Tm) calculated using the Boltzmann equation in Applied Biosystems software.
In general terms: Differential scanning fluorimetry follows unfolding on heating by fluorescence.

The subject of assay [2] is CDK1-cyclin B. To be noted: radiolabelled γ33P-ATP kinase assay, read-out: IC50 Published measurements CDK1B, cited from earlier work.
Another assay deals with T2, monomeric CDK2 (Homo sapiens, UniProt P24941).
T2 construct: Human CDK2 (encompassing full length residues 1-298); GST (N, cleaved yes); made in house; host or cells: E. coli
In words: biochemical. It counts as binding. As to conditions: DSF; phosphorylated monomeric CDK2; 10 μM inhibitor. How it is done: as §1

The target of assay [3] is T3, CDK2-cyclin A (Homo sapiens, UniProt P24941). Put plainly: biochemical. It counts as binding. To be noted: phosphorylated CDK2-cyclin A complex; 30°C; n = 2, ± SD; read-out: ITC Kd CDK2A. Set-up: Human CDK2 (encompassing full length residues 1-298); GST (N, cleaved yes); made in house; host or cells: E. coli (CDK2 and cyclin A2). How it is done:
(§2) Individual protein samples were exchanged into ITC buffer (40 mM HEPES, 500 mM NaCl, 0.25 mM TCEP, pH 8.0) at 4°C using a Hitrap desalting column (GE Healthcare Life Sciences, Chicago, IL, USA) (i.e. CDK1 and cyclin B were not combined to form a complex prior to buffer exchange). Protein concentration was then determined at A280 nm using a Nanodrop 2000 (Thermoscientific, Waltham, MA, USA) and sequence derived extinction coefficients (http://web.expasy.org/protparam/). Proteins and compounds were degassed at 30°C directly before analysis. Compounds at 100 μM prepared in ITC buffer (40 mM HEPES, 500 mM NaCl, 0.25 mM TCEP, pH 8.0) and to a final DMSO concentration of 1% were titrated into 200 μL protein solutions prepared at 10 μM, 1% DMSO in the cell. All experiments used phosphorylated forms of CDK1 and CDK2 (on T161 or T160 respectively). For experiments carried out in the absence of cyclin, proteins were prepared on ice to a final concentration of 10 μM in ITC buffer and supplemented with 1% DMSO.

Assay [4] concerns the target T4, CDK1-cyclin B (Homo sapiens, UniProt P06493).
T4 construct: Full-length human CDK1 was expressed in insect cells either untagged (from pVL1393) or as a 3C-protease cleavable GST fusion; GST (N, cleaved yes); made in house; host or cells: CDK1: insect cells (Sf9 baculovirus); cyclin B1: E. coli
In words: biochemical. To be noted: ADP-Glo, 20 μM ATP, 20 μM peptide, 4 nM CDK1-cyclin B. How it is done:
(§3) Briefly, the 5 inhibitors in the study were titrated against phosphorylated CDK2–cyclin A and CDK1–cyclin B, with reaction initiated through addition of ATP and substrate peptide HHASPRK (Enzo Scientific). ATP to ADP conversion was assessed using the ADP-Glo assay (Promega) essentially as described by the manufacturers. […] Reactions were initiated by the addition of 20 μM ATP and 20 μM peptide. All activity assays were performed in triplicate in white low volume 384-well plates using a PheraStar plate reader (BMG).
Background: In ADP-Glo the light output rises with the ADP produced.

Assay [5] has as its target T3, CDK2-cyclin A. In words: biochemical. On the set-up: Human CDK2 (encompassing full length residues 1-298); GST (N, cleaved yes); made in house; host or cells: E. coli. To be noted: ADP-Glo, 20 μM ATP, 20 μM peptide, 1.5 nM CDK2-cyclin A. How it is done: as §3
Assay [6] has as its target T5, phosphorylated monomeric CDK1 (Homo sapiens, UniProt P06493).
T5 construct: Full-length human CDK1 was expressed in insect cells either untagged (from pVL1393) or as a 3C-protease cleavable GST fusion; GST (N, cleaved yes); made in house; host or cells: insect cells (Sf9 baculovirus)
In words: biochemical. It counts as binding. To be noted: phosphorylated monomeric (cyclin-free) CDK1; 30°C; n = 2, ± SD; read-out: ITC Kd CDK1. As for the experimental part:
as §2

Assay [7] concerns the target T6, phosphorylated monomeric CDK2 (Homo sapiens, UniProt P24941).
T6 construct: Human CDK2 (encompassing full length residues 1-298); GST (N, cleaved yes); made in house; host or cells: E. coli
Put plainly: biochemical. It counts as binding. As to conditions: phosphorylated monomeric (cyclin-free) CDK2; 30°C; n = 2, ± SD; read-out: ITC Kd CDK2. How it is done: as §2

For assay [8], the target named is T4, CDK1-cyclin B. Put plainly: biochemical. In kind it is binding. As to conditions: phosphorylated CDK1-cyclin B complex; 30°C; n = 2, ± SD; read-out: ITC Kd CDK1B. How it is done:
as §2

Assay [9] addresses T7, GST-tagged unphosphorylated CDK2 (Homo sapiens, UniProt P24941).
T7 construct: Human CDK2 (encompassing full length residues 1-298); made in house; host or cells: E. coli BL21(DE3)STAR
Put plainly: biochemical. In kind it is binding. To be noted: unphosphorylated monomeric GST-CDK2; 20°C; duplicate, ± SD; read-out: SPR Kd CDK2. As for the experimental part:
(§4) SPR ligand interactions assays were performed on a Biacore S200 (GE Healthcare Life Sciences) at 20°C using multi-cycle settings. GST-tagged unphosphorylated CDK1 and CDK2 were immobilised onto the surface of a CM5 chip pre-immobilised with anti-GST antibody, provided as part of the GST-capture kit (GE Healthcare Life Sciences, catalogue number BR100223) following the GST immobilisation kit instructions. As a control, recombinant GST was immobilised onto the designated control flow cell. […] Preceding injection of each compound, three cycles of buffer injections were carried out over all surfaces (30 μL/min for 60 s with 360 s dissociation). Compounds were then injected over all surfaces (from low to high concentration) for 60 s at 30 μL/min before being allowed to dissociate for 360 s to record dose-responses. […] The experiment was conducted in SPR running buffer (20 mM HEPES, 150 mM NaCl, 0.01% Tween-20®, 1% DMSO, pH 7.4) and used an 8-point DMSO solvent correction (preparation of DMSO in DMSO-free SPR buffer to final concentrations of: 0.2%, 0.4%, 0.6%, 0.8% 1%, 1.2%, 1.4%, 1.6%) to account for any bulk flow interactions.

In assay [10] the target is T8, GST-tagged unphosphorylated CDK1 (Homo sapiens, UniProt P06493).
T8 construct: Full-length human CDK1 was expressed in insect cells either untagged (from pVL1393) or as a 3C-protease cleavable GST fusion; made in house; host or cells: insect cells (Sf9 baculovirus)
T8 sequence (P06493 whole entry, the tested form may be a part): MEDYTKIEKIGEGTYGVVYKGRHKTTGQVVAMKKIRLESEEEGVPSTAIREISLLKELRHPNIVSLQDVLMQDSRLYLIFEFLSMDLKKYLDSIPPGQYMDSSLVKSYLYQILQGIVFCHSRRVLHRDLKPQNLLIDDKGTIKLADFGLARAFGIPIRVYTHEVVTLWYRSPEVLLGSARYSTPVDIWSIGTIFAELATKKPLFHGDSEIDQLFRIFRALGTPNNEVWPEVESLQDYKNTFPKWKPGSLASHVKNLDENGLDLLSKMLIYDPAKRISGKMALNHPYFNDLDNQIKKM
Put plainly: biochemical. In kind it is binding. To be noted: unphosphorylated monomeric GST-CDK1; 20°C; duplicate, ± SD; read-out: SPR Kd CDK1. How it is done:
as §4

Assay [11] deals with CDK1-cyclin B. As to conditions: read-out: IC50 Published measurements CDK1B; scintillation proximity assay; ref Whittaker et al., 2017; Byth et al., 2009; cited from earlier work. Background: SPA uses beads or plates that emit light when radiolabelled molecules are held near them.
The mark [12] stands for this setting: DSF, phosphorylated monomeric CDK1, 10 μM inhibitor.

The text below walks through data of publication PMC6344228 (Cell Chemical Biology, 2019).

Several values for one entry are separate records, joined by “and”; a condition that tells them apart may be missing. Identical values can stand only once. Like-named read-outs stand apart in the source and are kept apart here.

What is called IC50 is the midpoint of a concentration-inhibition curve. The term ΔTm denotes the change in melting temperature against a reference sample. As a reminder, the Kd is the free concentration of one partner at which half of the binding sites on the other are occupied at equilibrium, for simple one-to-one binding. The Ki is a dissociation constant, usually derived from enzyme kinetics or from competition with a known ligand.

As to `COc1ccc2c(c1)/C(=C/c1cnc[nH]1)C(=O)N2` [SU9516], the IC50 in the assay on CDK2-cyclin A [1] was […].

T4 sequence (P06493 whole entry, the tested form may be a part): as above
T4 sequence (P14635 with tags, fused parts or gaps C167S/C238S/C350S partner limits assumed): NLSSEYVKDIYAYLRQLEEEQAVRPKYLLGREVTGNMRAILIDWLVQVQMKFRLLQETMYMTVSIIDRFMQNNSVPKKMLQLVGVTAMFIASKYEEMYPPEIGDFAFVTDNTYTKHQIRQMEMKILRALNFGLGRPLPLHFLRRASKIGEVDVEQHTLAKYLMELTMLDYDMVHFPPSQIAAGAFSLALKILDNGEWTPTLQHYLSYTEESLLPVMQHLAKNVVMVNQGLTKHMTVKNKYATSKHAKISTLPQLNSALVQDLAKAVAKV
T1 sequence (P06493 whole entry, the tested form may be a part): as the sequence (P06493 whole entry, the tested form may be a part) above
T5 sequence (P06493 whole entry, the tested form may be a part): as above

With `CN1CC[C@H](c2c(O)cc(O)c3c(=O)cc(-c4ccccc4Cl)oc23)[C@H](O)C1` [Alvocidib], the ΔTm at 10 µM was 0.9 °C on monomeric CDK1 (setting [12]) and 7.3 °C on monomeric CDK2. The IC50 in the assay with CDK1-cyclin B [2] (ref Whittaker et al., 2017, Asghar et al., 2015, Byth et al., 2009, Mariaule and Belmont, 2014, Kim et al., 2000) is […].

Regarding `CCn1cnc2c(Nc3cccc(Cl)c3)nc(NC3CCCCC3N)nc21` (stereo not shown) [CGP74514A], the results for the ΔTm at 10 µM on monomeric CDK1 and at monomeric CDK2 were -3.3 °C and 5.2 °C, respectively. Further, the Kd is 224 ± 14 nM on CDK2-cyclin A [3]; above 20 µM in [6]; 715 ± 15 nM in assay [7]; 950 ± 50 nM on CDK1-cyclin B [8]; 312 ± 52 nM in assay [9]; 13.5 µM in assay [10]. In addition, the IC50 on CDK1-cyclin B [4] (read-out: IC50 Lab measurements CDK1B) was 833 nM; at CDK2-cyclin A [5] (read-out: IC50 Lab measurements CDK2A) it was 33 nM; in the assay with CDK1-cyclin B [2] (ref Imbach et al., 1999), 25 nM. Further, the Ki at CDK1-cyclin B [4] (read-out: Ki (in parenthesis) Lab measurements CDK1B) amounted to 463 nM; on CDK2-cyclin A [5] (read-out: Ki (in parenthesis) Lab measurements CDK2A), 18.3 nM.

With `Cc1ncc(-c2ccnc(Nc3ccc(S(C)(=O)=O)cc3)n2)n1C(C)C` [AZD5438], on monomeric CDK1 (setting [12]), the shift in melting temperature (ΔTm) at 10 µM was -2.6 °C. Further, the 50% inhibitory concentration (IC50) with CDK1-cyclin B [11] was 16 nM.
